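At the GI50, growth is halved. TGI: concentration producing complete growth inhibition.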
Key:
Test in all cases: growth of human tumour cells (NCI), 384-well format
[1] = tested on: UACC-257 melanoma
[2] = tested on: NCI-H522 lung
[3] = tested on: K-562 leukemia
[4] = tested on: KM12 colon
[5] = tested on: OVCAR-8 ovarian
[6] = tested on: RPMI-8226 leukemia
[7] = tested on: COLO 205 colon
[8] = tested on: A549 NSCLC
[9] = tested on: OVCAR-4 ovarian
[10] = tested on: OVCAR-3 ovarian
[11] = tested on: UO-31 renal
[12] = tested on: PC-3 prostate
[13] = tested on: HCC-2998 colon
[14] = tested on: BT-549 breast
[15] = tested on: SNB-75 CNS
[16] = tested on: NCI-H460 NSCLC
[17] = tested on: HS 578T breast
[18] = tested on: UACC-62 melanoma
[19] = tested on: SF-295 CNS
[20] = tested on: SK-MEL-5 melanoma
[21] = tested on: NCI-H23 lung
[22] = tested on: TK-10 renal
[23] = tested on: SK-MEL-28 melanoma
[24] = tested on: SK-MEL-2 melanoma
[25] = tested on: SF-539 CNS
[26] = tested on: CCRF-CEM leukemia
[27] = tested on: MDA-MB-231 breast
[28] = tested on: T-47D breast
[29] = tested on: RXF 393 renal
[30] = tested on: A498 renal
[31] = tested on: M14 melanoma
[32] = tested on: SK-OV-3 ovarian
[33] = tested on: MALME-3M melanoma
[34] = tested on: MDA-MB-468 breast
[35] = tested on: HCT-15 colon
[36] = tested on: HOP-92 NSCLC
[37] = tested on: NCI/ADR-RES ovarian
[38] = tested on: MOLT-4 leukemia
[39] = tested on: MCF7 breast
[40] = tested on: SF-268 CNS
[41] = tested on: NCI-H322M lung
[42] = tested on: DU-145 prostate
[43] = tested on: IGROV1 ovarian
[44] = tested on: HOP-62 NSCLC
[45] = tested on: HT29 colon
[46] = tested on: SW-620 colon
[47] = tested on: SR leukemia

Cc1cc(C)c(CNC(=O)c2cc(-c3ccc(CN4CCOCC4)cc3)cc3c2cnn3C2CCCC2)c(=O)[nH]1
GI50 [1]: 2.23 µM | TGI [1]: 4.96 µM | GI50 [2]: 15.3 µM | TGI [2]: 28.7 µM | GI50 [3]: 4.84 µM | TGI [3]: 16.5 µM | GI50 [4]: 8.88 µM | TGI [4]: 21.7 µM | GI50 [5]: 11 µM | TGI [5]: 23.3 µM | GI50 [6]: 2.11 µM | TGI [6]: 6.54 µM | GI50 [7]: 8.25 µM | TGI [7]: 20.5 µM | GI50 [8]: 6.65 µM | TGI [8]: 17.7 µM | GI50 [9]: 12.9 µM | TGI [9]: 25.8 µM | GI50 [10]: 4.83 µM | TGI [10]: 17.5 µM | GI50 [11]: 5.87 µM | TGI [11]: 20.6 µM | GI50 [12]: 8.37 µM | TGI [12]: 20.8 µM | GI50 [13]: 6.61 µM | TGI [13]: 17.7 µM | GI50 [14]: 8.98 µM | TGI [14]: 22.1 µM | GI50 [15]: 7.97 µM | TGI [15]: 21.2 µM | GI50 [16]: 7.72 µM | TGI [16]: 20.5 µM | GI50 [17]: 2.92 µM | TGI [17]: 7.44 µM | GI50 [18]: 12.3 µM | TGI [18]: 24.9 µM | GI50 [19]: 12 µM | TGI [19]: 24.6 µM | GI50 [20]: 5.47 µM | TGI [20]: 13.9 µM | GI50 [21]: 14.3 µM | TGI [21]: 27.5 µM | GI50 [22]: 0.968 µM | TGI [22]: 21.9 µM | GI50 [23]: 9.62 µM | TGI [23]: 21.9 µM | GI50 [24]: 13 µM | TGI [24]: 25.7 µM | GI50 [25]: 6.86 µM | TGI [25]: 19.8 µM | GI50 [26]: 3.42 µM | TGI [26]: 8.99 µM | GI50 [27]: 8.35 µM | TGI [27]: 21.4 µM | GI50 [28]: 0.986 µM | TGI [28]: 10.6 µM | GI50 [29]: 5.49 µM | TGI [29]: 15.8 µM | GI50 [30]: 3.92 µM | TGI [30]: 15.4 µM | GI50 [31]: 6.87 µM | TGI [31]: 17.6 µM | GI50 [32]: 13.4 µM | TGI [32]: 26.4 µM | GI50 [33]: 5.49 µM | TGI [33]: 15.9 µM | GI50 [34]: 0.0189 µM | TGI [34]: 0.0459 µM | GI50 [35]: 3.03 µM | TGI [35]: 11.6 µM | GI50 [36]: 6.29 µM | TGI [36]: 17.1 µM | GI50 [37]: 11.6 µM | TGI [37]: 24 µM | GI50 [38]: 3.02 µM | TGI [38]: 7.94 µM | GI50 [39]: 6.19 µM | TGI [39]: 17.8 µM | GI50 [40]: 6.37 µM | TGI [40]: 13.6 µM | GI50 [41]: 12.1 µM | TGI [41]: 24.8 µM | GI50 [42]: 13.5 µM | TGI [42]: 27.6 µM | GI50 [43]: 1.02 µM | TGI [43]: 25 µM | GI50 [44]: 6.39 µM | TGI [44]: 17.4 µM | GI50 [45]: 2.3 µM | TGI [45]: 5.14 µM | GI50 [46]: 13.2 µM | TGI [46]: 26.3 µM | GI50 [47]: 2.41 µM | TGI [47]: 5.85 µM

From PubChem BioAssay (NCI)
